{"source": "patent US20090176839A1", "about": "“FORMULATIONS OF 3-(6-(1-(2,2-DIFLUOROBENZO[D][1,3]DIOXOL-5-YL) CYCLOPROPANECARBOXAMIDO)-3-METHYLPYRIDIN-2-YL)BENZOIC ACID” (priority 2007, published 2009)", "key": {"Solubility (statement)": {"experiment": "Solubility (statement)", "assay_type": "physicochemical", "details": "aqueous medium"}, "dogs [1]": {"tested_on": "dogs", "experiment": "14-day repeat-dose oral toxicity study in dogs", "experimental": "(§2) Repeat-dose oral toxicity studies of 7- and 14-days duration have been conducted in rats (up to 600 mg/kg/day) and dogs (up to 200 mg/kg/day)."}, "in vivo [2]": {"experiment": "in vivo", "set-up": "species or system rats", "details": "rat", "method": "(§1) The animals were dosed orally with the vehicle (0.5% methylcellulose in water), or 15, 75, or 150 mg/kg Compound 1 twice daily for 7 consecutive days. The two daily doses were administered approximately 10 hours apart and the dose volume was 5 mL/kg/b.i.d. for all dose groups. At the end of the dosing period, all animals were euthanized and necropsied. Satellite animals (6/sex/Groups 2-4) were dosed in the same manner as the toxicity animals and plasma samples were collected on Days 1 and 7 for toxicokinetic (TK) analysis. Parameters evaluated during the study were: viability, clinical observations, body weights, feed consumption, clinical pathology (termination), organ weights, macroscopic observations and microscopic pathology."}, "rats": {"tested_on": "rats", "experiment": "in vivo", "details": "rat", "method": "as §1"}, "[3]": {"experiment": "Stability of 6 mg/mL aqueous methylcellulose-polysorbate 80 suspension (HPLC, XRPD, NMR)", "assay_type": "physicochemical", "details": "for Peak purity %: 6 mg/mL aqueous methylcellulose-polysorbate 80 suspension, room temperature", "method": "Methylcellulose (0.5 g) was combined with 99.0 g of purified water in a beaker and stirred in a 60-70° C. water bath for 30′-1 hr. The solution was stirred in a 0° C. ice/water bath for another 30′ or until clear. Polysorbate 80 (0.5 g) was added and stirring at room temperature followed for 30′-1 hr or until a clear solution was obtained.\nThe desired amount of 0.5% methylcellulose and 0.5% polysorbate 80 stock solution for making a 6 mg/mL based on free base (6.48 mg/mL based on HCl salt) was transferred into the vial and sonicated for 20 minutes with alternate stirring for 1-2 minutes. The solution was homogenized for approximately 1-2 minutes.\nAs with 0.5% methylcellulose formulation prepared previously, the HCl salt was quickly converted to Compound 1 in Form I at T(0) resulting in a crystalline free form suspension as shown by XRPD (FIG. 10) and confirmed by ^1H NMR analysis (FIGS. 11-13). Additionally, the solid form in suspension at T(0) was recovered an subjected to HPLC analysis: […]"}, "TP receptor": {"biological_target": "T1, TP receptor (Rattus norvegicus, UniProt P34978)", "T1 construct": "In an in vitro functional assay of TP receptor function using rat aorta; from tissue; host or cells: rat aorta", "T1 sequence (P34978 1-341)": "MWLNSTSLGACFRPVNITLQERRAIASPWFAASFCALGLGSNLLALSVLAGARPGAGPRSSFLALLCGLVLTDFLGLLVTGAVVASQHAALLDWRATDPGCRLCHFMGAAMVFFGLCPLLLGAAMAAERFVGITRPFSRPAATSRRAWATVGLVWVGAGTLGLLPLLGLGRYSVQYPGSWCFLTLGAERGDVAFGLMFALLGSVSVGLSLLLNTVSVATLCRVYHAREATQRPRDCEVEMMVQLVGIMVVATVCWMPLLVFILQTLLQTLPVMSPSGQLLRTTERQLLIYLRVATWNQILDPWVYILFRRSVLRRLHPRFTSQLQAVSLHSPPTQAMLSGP", "experiment": "In vitro functional assay of TP receptor function using rat aorta", "assay_type": "cell-based", "details": "read-out: IC50 (TP receptor antagonist)"}, "in vivo [4]": {"experiment": "in vivo", "details": "dog, po", "experimental": "as §2"}, "[5]": {"experiment": "Stability of 6 mg/mL aqueous methylcellulose suspension (HPLC, XRPD)", "assay_type": "physicochemical", "details": "room temperature; for Peak purity %: 6 mg/mL aqueous methylcellulose suspension", "method": "A 100 mL stock solution of 0.5% by weight methylcellulose was prepared by stirring 0.5 g of methylcellulose with 99.5 g of purified water until completely dissolved (approximately 24 hours). […] The desired amount of 0.5% methylcellulose stock solution for making a 6 mg/mL based on free base (6.48 mg/mL based on HCl salt) was transferred into the vial and sonicated for 20 minutes and homogenized for approximately 5 minutes.\nThe methylcellulose formulation was also subjected to HPLC analysis at 0 and 24 hours: […]"}, "male mice": {"tested_on": "male mice", "experiment": "In vivo mouse micronucleus assay", "details": "oral gavage at doses up to 2000 mg/kg", "method": "The potential for genetic toxicology was tested using standard GLP bacterial mutation (Ames), Chinese hamster ovary (CHO) chromosome aberration, and in vivo mouse micronucleus assays: Compound 1 was negative in all tests. […] With the exception of the preliminary 7-day toxicity studies, all studies were performed according to GLP regulations."}, "[6]": {"experiment": "Toxicokinetics in acute oral toxicity study in mice", "assay_type": "in vivo", "details": "plasma", "description": "Compound 1 was well absorbed in mice with time to reach maximum plasma concentrations (tmax) ranging from 0.5 to 2.0 hr. […] There were no significant gender-related effects in Compound 1 exposures noted."}, "[7]": {"experiment": "Toxicokinetics in 14-day oral toxicity study in rats", "details": "rat, in vivo, 600 mg/kg/day", "description": "There were no major differences noted in TK parameters between males and females, or when comparing study Day 1 to study Day 14."}, "dogs [8]": {"tested_on": "dogs", "details": "dog, in vivo", "experimental": "as §2"}, "hERG": {"biological_target": "hERG (Homo sapiens, UniProt Q12809)", "sequence (Q12809 whole entry)": "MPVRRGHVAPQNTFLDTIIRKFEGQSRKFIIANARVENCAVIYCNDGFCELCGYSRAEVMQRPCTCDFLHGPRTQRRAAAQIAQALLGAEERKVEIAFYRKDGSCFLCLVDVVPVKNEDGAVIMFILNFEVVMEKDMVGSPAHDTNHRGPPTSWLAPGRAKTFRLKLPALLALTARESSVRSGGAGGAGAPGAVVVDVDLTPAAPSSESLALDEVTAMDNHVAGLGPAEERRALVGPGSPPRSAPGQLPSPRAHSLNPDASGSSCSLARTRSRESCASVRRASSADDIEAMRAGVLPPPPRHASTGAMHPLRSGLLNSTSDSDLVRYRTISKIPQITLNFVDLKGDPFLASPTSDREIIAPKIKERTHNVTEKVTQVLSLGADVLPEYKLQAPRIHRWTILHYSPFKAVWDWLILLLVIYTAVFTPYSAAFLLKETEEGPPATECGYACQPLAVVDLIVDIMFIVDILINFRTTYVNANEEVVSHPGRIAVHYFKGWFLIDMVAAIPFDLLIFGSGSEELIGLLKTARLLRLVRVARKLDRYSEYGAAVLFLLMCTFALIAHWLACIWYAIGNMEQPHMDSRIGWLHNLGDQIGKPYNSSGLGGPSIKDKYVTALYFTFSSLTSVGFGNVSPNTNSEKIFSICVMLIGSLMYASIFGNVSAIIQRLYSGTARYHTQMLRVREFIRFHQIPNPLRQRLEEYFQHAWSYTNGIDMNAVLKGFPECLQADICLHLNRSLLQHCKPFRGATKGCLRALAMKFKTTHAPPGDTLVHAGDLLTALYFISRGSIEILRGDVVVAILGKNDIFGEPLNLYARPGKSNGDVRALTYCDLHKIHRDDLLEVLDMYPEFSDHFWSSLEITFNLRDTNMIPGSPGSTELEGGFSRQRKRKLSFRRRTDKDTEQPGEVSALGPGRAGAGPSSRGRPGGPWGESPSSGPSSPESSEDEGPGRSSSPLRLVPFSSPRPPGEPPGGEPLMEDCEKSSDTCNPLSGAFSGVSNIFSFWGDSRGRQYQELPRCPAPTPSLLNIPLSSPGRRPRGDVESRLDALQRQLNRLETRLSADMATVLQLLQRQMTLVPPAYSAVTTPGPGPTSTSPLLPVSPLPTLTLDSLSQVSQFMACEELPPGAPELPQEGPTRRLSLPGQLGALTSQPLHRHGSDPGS", "experiment": "hERG channel competitive binding (3H-astemizole)", "details": "probe 3H-astemizole"}}, "note": "“Also recorded” adds a separate entry of the source."}
{"smiles": "Cc1ccc(NC(=O)C2(c3ccc4c(c3)OC(F)(F)O4)CC2)nc1-c1cccc(C(=O)O)c1", "note": "[Compound 1, 3-(6-(1-(2,2-difluorobenzo[d][1,3]dioxol-5-yl)cyclopropanecarboxamido)-3-methylpyridin-2-yl)benzoic acid]", "values": [{"measurement": "solubility", "setting": "Solubility (statement)", "value": "low solubility"}, {"measurement": "projected safety margin range from the dog NOAEL", "setting": "dogs [1]; assuming efficacious dose in dogs 0.91 mg/kg b.i.d. (Ctrough at EC90)", "value": 110, "unit": "×"}, {"measurement": "low prostate:body weight and prostate:brain weight ratios vs. vehicle control group", "setting": "dogs [1]; male dogs, 14-day study, all dose levels", "value": "52-62%"}, {"measurement": "NOAEL at 7 days", "setting": "in vivo [2]", "value": 300, "unit": "mg/kg/day"}, {"measurement": "gross lesions and histopathological findings", "setting": "rats", "value": "no test article related gross lesions or histopathological findings"}, {"measurement": "adrenal gland weights", "setting": "rats; 300 mg/kg/day", "value": "higher adrenal gland weights"}, {"measurement": "body weight", "setting": "rats; 300 mg/kg/day", "value": "minor effects on body weight"}, {"measurement": "serum potassium", "setting": "rats; 300 mg/kg/day", "value": "lower serum potassium"}, {"measurement": "urinary pH", "setting": "rats; 300 mg/kg/day", "value": "slight increase in urinary pH"}, {"measurement": "degradation peaks by HPLC", "setting": "[3]", "value": "No major degradation peaks were detected"}, {"measurement": "Peak purity %", "setting": "[3]; T(0)", "value": 98.81, "unit": "%"}, {"measurement": "Peak purity %", "setting": "[3]; T(24 h)", "value": 98.24, "unit": "%"}, {"measurement": "chemically stable, time", "setting": "[3]; 24 h, 6 mg/mL", "value": "at least 24 hrs"}, {"measurement": "IC50", "setting": "TP receptor", "value": "1 to 10", "unit": "µM"}, {"measurement": "NOAEL at 14 days", "setting": "in vivo [4]", "value": 200, "unit": "mg/kg/day"}, {"measurement": "Peak purity %", "setting": "[5]; T(0)", "value": 99.41, "unit": "%"}, {"measurement": "Peak purity %", "setting": "[5]; T(24 h)", "value": 99.37, "unit": "%"}, {"measurement": "physically and chemically stable, time", "setting": "[5]; methylcellulose formulation", "value": "at least 24 hrs"}, {"measurement": "number of micronucleated polychromatic erythrocytes", "setting": "male mice", "value": "negative; also recorded: did not induce a significant increase"}, {"measurement": "Cmax", "setting": "[6]; CD-1, mouse, 2000 mg/kg, Female", "value": 325, "unit": "µg/mL"}, {"measurement": "AUC(0-t)", "setting": "[6]; CD-1, mouse, 2000 mg/kg, Female, read-out: AUC0-24 h", "value": 2900, "unit": "µg·h/mL"}, {"measurement": "Tmax", "setting": "[6]; CD-1, mouse, 2000 mg/kg, Female, read-out: tmax", "value": 1, "unit": "h"}, {"measurement": "Cmax", "setting": "[6]; CD-1, mouse, 2000 mg/kg, Male", "value": 264, "unit": "µg/mL"}, {"measurement": "AUC(0-t)", "setting": "[6]; CD-1, mouse, 2000 mg/kg, Male, read-out: AUC0-24 h", "value": 2680, "unit": "µg·h/mL"}, {"measurement": "Tmax", "setting": "[6]; CD-1, mouse, 2000 mg/kg, Male, read-out: tmax", "value": 1, "unit": "h"}, {"measurement": "half-life", "setting": "[6]; both sexes, mouse, 500 to 2000 mg/kg, read-out: elimination half-life (t1/2)", "value": "246 to 516", "unit": "min"}, {"measurement": "Tmax", "setting": "[6]; both sexes, mouse, 500 to 2000 mg/kg, read-out: time to reach maximum plasma concentrations (tmax)", "value": "0.5 to 2", "unit": "h"}, {"measurement": "AUC(0-t)", "setting": "[6]; female, mouse, females at 500 mg/kg, read-out: AUC0-24hr", "value": 1840, "unit": "µg·h/mL"}, {"measurement": "Cmax", "setting": "[6]; female, mouse, females at 2000 mg/kg", "value": 325, "unit": "µg/mL"}, {"measurement": "Cmax", "setting": "[6]; male, mouse, males at 500 mg/kg", "value": 142, "unit": "µg/mL"}, {"measurement": "AUC(0-t)", "setting": "[7]; both sexes, rats, at the NOAEL (600 mg/kg/day), read-out: average AUC0-24hr", "value": 3950, "unit": "µg·h/mL"}, {"measurement": "Cmax", "setting": "[7]; both sexes, rats, at the NOAEL (600 mg/kg/day), read-out: average Cmax", "value": 222, "unit": "µg/mL"}, {"measurement": "Tmax", "setting": "[7]; female, Sprague Dawley, Study Day 1, Female", "value": 4, "unit": "h"}, {"measurement": "AUC(0-t)", "setting": "[7]; female, Sprague Dawley, Study Day 1, Female, read-out: AUC0-24 hr", "value": 4430, "unit": "µg·h/mL"}, {"measurement": "Cmax", "setting": "[7]; female, Sprague Dawley, Study Day 1, Female, read-out: Cmax", "value": 273, "unit": "µg/mL"}, {"measurement": "Tmax", "setting": "[7]; female, Sprague Dawley, Study Day 14, Female", "value": 10, "unit": "h"}, {"measurement": "AUC(0-t)", "setting": "[7]; female, Sprague Dawley, Study Day 14, Female, read-out: AUC0-24 hr", "value": 5500, "unit": "µg·h/mL"}, {"measurement": "Cmax", "setting": "[7]; female, Sprague Dawley, Study Day 14, Female, read-out: Cmax", "value": 272, "unit": "µg/mL"}, {"measurement": "Tmax", "setting": "[7]; male, Sprague Dawley, Study Day 1, Male", "value": 10, "unit": "h"}, {"measurement": "AUC(0-t)", "setting": "[7]; male, Sprague Dawley, Study Day 1, Male, read-out: AUC0-24 hr", "value": 2660, "unit": "µg·h/mL"}, {"measurement": "Cmax", "setting": "[7]; male, Sprague Dawley, Study Day 1, Male, read-out: Cmax", "value": 164, "unit": "µg/mL"}, {"measurement": "Tmax", "setting": "[7]; male, Sprague Dawley, Study Day 14, Male", "value": 10, "unit": "h"}, {"measurement": "AUC(0-t)", "setting": "[7]; male, Sprague Dawley, Study Day 14, Male, read-out: AUC0-24 hr", "value": 3220, "unit": "µg·h/mL"}, {"measurement": "Cmax", "setting": "[7]; male, Sprague Dawley, Study Day 14, Male, read-out: Cmax", "value": 181, "unit": "µg/mL"}, {"measurement": "ECG tracings and opthalmology examinations", "setting": "dogs [8]", "value": "within normal limits"}, {"measurement": "RBC parameters, decreases", "setting": "dogs [8]", "value": "7-14%"}, {"measurement": "total cholesterol, decreases", "setting": "dogs [8]", "value": "21-29%"}, {"measurement": "triglycerides, decreases", "setting": "dogs [8]", "value": "44-46%"}, {"measurement": "light microscopy findings", "setting": "dogs [8]; 14 days", "value": "no significant Compound 1 related findings"}, {"measurement": "dosage tolerated without toxic effect", "setting": "dogs [8]; po, 14 days", "value": "up to 200 mg/kg/day"}, {"measurement": "inhibition at 10 µM", "setting": "hERG", "value": 4, "unit": "%"}]}
